Source: article PMC12378234, “Enzyme-mediated aminoglycoside resistance without target mimicry” (Communications Chemistry, 2025)
In brackets after ≈: the same amount, converted by molar mass. Several values for one entry are separate records, joined by “and”; a condition that tells them apart may be missing. Identical values can stand only once. Like-named read-outs stand apart in the source and are kept apart here.

Experiments:
[1] = system: BL21(DE3) E. coli transformed with pUCP18 vector expressing untagged AAC(3)-IIIa; format: cell-based; details: E. coli expressing AAC(3)-IIIa
Method: (§1) Ten milliliters of LB containing […] ampicillin were inoculated from glycerol stocks of transformed BL21(DE3) E. coli containing genes expressing the proteins of interest in pUCP18 vectors. These cultures were incubated at 37 °C with 200 rpm agitation for 16 h. Turbidity was measured through OD600 with a NanoDrop OneC Spectrometer (Thermo Scientific). From the initial cultures, secondary 10 mL cultures were prepared with OD600 values of 0.1. These cultures were grown until OD600 values of 0.4–0.6 were reached and diluted to bring all cultures to the same OD600. Cultures were induced with 1 mM Isopropyl β-D-1-thiogalactopyranoside and incubated for 4 h. Two microliters of culture was added to 198 μL of LB with an appropriate aminoglycoside titration concentration. Each titration point was repeated n = 4 times. The formulated 96-well culture plate (Sarstedt) had OD600 measured on a 20-min interval over 17 h using a BioTek Cytation 5 Cell Imaging Multimode Reader, incubating at 37 °C with 282 cpm orbital agitation. Experiments were repeated with fresh cultures on separate days to ensure consistent trends. Data was analyzed in Microsoft Excel and GraphPad5. The remainder of the culture immediately had its RNA isolated for qPCR experiments.

[2] = system: BL21(DE3) E. coli transformed with pUCP18 vector expressing untagged AAC(3)-Ia; format: cell-based; details: E. coli expressing AAC(3)-Ia
Method: as §1

[3] = system: BL21(DE3) E. coli transformed with pUCP18 vector expressing untagged AAC(3)-XIa; format: cell-based; details: E. coli expressing AAC(3)-XIa
Method: as §1

[4] = system: BL21(DE3) E. coli transformed with pUCP18 vector expressing AAC(3)-Ia; experiment: Antibiotic susceptibility testing, endpoint MIC assay; format: cell-based; details: Escherichia coli, 20 h, read-out: Endpoint minimum inhibitory concentration (MIC)
Method: (§2) Ten milliliters of cultures of LB containing […] ampicillin were inoculated from glycerol stocks of transformed BL21(DE3) E. coli containing genes expressing the proteins of interest in pUCP18 vectors. Experiments were performed using 6xHis-tagged fusion-proteins, as well as untagged wild-type proteins. These cultures were incubated at 37 °C with 200 rpm agitation for 16 h. Turbidity was measured through OD600 with a NanoDrop OneC Spectrometer (Thermo Scientific). From the initial cultures, secondary 10 mL cultures were prepared with OD600 values of 0.1. These cultures were grown until OD600 values of 0.4–0.6 were reached and diluted to bring all cultures to the same OD600. Cultures were induced with 1 mM Isopropyl β-D-1-thiogalactopyranoside and incubated for 4 h. Cultures were diluted to 1 × 10^6 cells mL^−1. Two microliters of culture was added to 198 μL of LB with an appropriate aminoglycoside titration concentration. The formulated 96-well culture plate (Sarstedt) was incubated at 37 °C with 120 rpm orbital agitation. The remainder of the bacterial culture was immediately lysed and processed for Western blotting. OD600 was measured after 20 h using the Molecular Devices Spectra MAX 190 plate reader.

[5] = system: BL21(DE3) E. coli transformed with pUCP18 vector expressing AAC(3)-XIa; experiment: as above; format: cell-based; details: Escherichia coli, 20 h, read-out: Endpoint minimum inhibitory concentration (MIC)
Method: as §2

[6] = system: BL21(DE3) E. coli transformed with pUCP18 vector expressing AAC(3)-IIIa; experiment: as above; format: cell-based; details: Escherichia coli, 20 h, read-out: Endpoint minimum inhibitory concentration (MIC)
Method: as §2

[7] = system: empty pUCP18 vector transformed E. coli; experiment: as above; format: cell-based; details: Escherichia coli; empty pUCP18 vector control E. coli; after 20 h of growth; read-out: Endpoint minimum inhibitory concentration (MIC)
Method: as §2

AAC(3)-XIa = AAC(3)-XIa (Corynebacterium striatum, UniProt A0ABX7DED9); experiment: Isothermal titration calorimetry; format: binding; details: 25 °C, with coenzyme A, n = 3
Method: (§3) To accurately measure protein ligand interactions, the concentration of our proteins of interest was measured spectrophotometrically using the NanoDrop OneC Spectrometer (Thermo Scientific). ITC experiments were performed on a MicroCal iTC 200 (General Electric) at 25 °C with stirring at 750 rpm. Unique buffer solutions were used for each enzyme. AAC(3)-Ia was prepared in 50 mM HEPES, pH 7, and 150 mM NaCl. AAC(3)-IIIa was prepared in 120 mM Tris, pH 7.5, and 150 mM NaCl. AAC(3)-XIa was prepared in 20 mM Tris, pH 7.5, and 150 mM NaCl. The cell contained 550 μM AAC(3)-Ia, 350 μM AAC(3)-IIIa, or 450 μM AAC(3)-XIa. All experiments also contained 5000 μM of coenzyme A trilithium salt in the cell. […] In all ITC experiments, aminoglycosides were prepared in the same buffering solution as the target protein. The ligands were injected 29 times ([…] per injection) with a 180 s interval between injections. Results were analyzed using ORIGIN software version 7E (MicroCal) using the molecular weight of a single protomer of each protein and fitted with a two-set of sites binding model (Supplementary Fig. 5). Data analysis was performed in Microsoft Excel and GraphPad5 software. One-way ANOVA and Tukey’s multiple comparison tests were used to determine the statistical significance of binding affinities.

AAC(3)-Ia = AAC(3)-Ia (Acinetobacter baumannii, UniProt D7R512); experiment: Isothermal titration calorimetry; format: binding
Method: as §3

AAC(3)-IIIa = molecular target: T1, AAC(3)-IIIa (Pseudomonas aeruginosa, UniProt P29808); experiment: Isothermal titration calorimetry; format: binding, P. aeruginosa
T1 construct: 6xHis-tag (thrombin-cleavable, pET15b) (N); made in house; host or cells: LOBSTR E. coli
Method: as §3

[8] = system: CNC(C)C1CCC(N)C(OC2C(N)CC(N)C(OC3OCC(C)(O)C(NC)C3O)C2O)O1; experiment: purified protein, by the assay type; details: other: AAC(3)-IIIa, 22 °C, pH 6.5, 150 μM acetyl coenzyme A, n = 3
Method: The acetylation of aminoglycosides was measured by a coupled assay, where the formation of pyridine-4-thiolate can be detected at 324 nm[42],[43]. The kinetic assays were performed at room temperature (22 °C) in quartz cuvettes (pathlength 1 cm) at a final volume of 0.8 mL. Reaction solution contained 25 mM MOPS pH 6.5, 100 mM NaCl, 500 μM 4,4’-dipyridyl disulfide (Aldrithiol™-4, Sigma-Aldrich), 150 μM acetyl coenzyme A, and aminoglycoside concentrations varying from 1.25 to 160 μM. […] All reactions were run in triplicate, and data analysis was performed using GraphPad5 software. One-way ANOVA and Tukey’s multiple comparison tests were used to determine the statistical significance of catalytic efficiencies.

[9] = molecular target: AAC(3)-Ia from Acinetobacter baumannii (Acinetobacter baumannii); experiment: crystal structure; AAC(3)-Ia with CoASH, with or without sisomicin; sitting-drop vapor diffusion at 22 °C, 0.1 M Tris pH 8.5, 0.05 M MgCl2, 20% EtOH, 35% PEG 400; one protomer per asymmetric unit, dimer by crystallographic symmetry
[10] = system: CN[C@@H]1[C@@H](O)[C@@H](O[C@@H]2[C@@H](O)[C@H](O[C@H]3OC(CN)=CC[C@H]3N)[C@@H](N)C[C@H]2N)OC[C@]1(C)O; experiment: Michaelis-Menten kinetics, coupled acetylation assay (pyridine-4-thiolate at 324 nm); format: biochemical, Corynebacterium striatum; details: other: AAC(3)-XIa, 22 °C, pH 6.5, 150 μM acetyl coenzyme A, n = 3
Method: (§4) The acetylation of aminoglycosides was measured by a coupled assay, where the formation of pyridine-4-thiolate can be detected at 324 nm[42],[43]. The kinetic assays were performed at room temperature (22 °C) in quartz cuvettes (pathlength 1 cm) at a final volume of 0.8 mL. Reaction solution contained 25 mM MOPS pH 6.5, 100 mM NaCl, 500 μM 4,4’-dipyridyl disulfide (Aldrithiol™-4, Sigma-Aldrich), 150 μM acetyl coenzyme A, and aminoglycoside concentrations varying from 1.25 to 160 μM. The reaction was initialized by the addition of AAC(3)-Ia to a final concentration of 0.2 μM, AAC(3)-XIa to a final concentration of 1.94 μM, or AAC(3)-IIIa to a final concentration of 0.4 μM, where UV absorbance was measured over 5 min. All reactions were run in triplicate, and data analysis was performed using GraphPad5 software. One-way ANOVA and Tukey’s multiple comparison tests were used to determine the statistical significance of catalytic efficiencies.

[11] = system: CNC(C)C1CCC(N)C(OC2C(N)CC(N)C(OC3OCC(C)(O)C(NC)C3O)C2O)O1; experiment: as above; format: biochemical, Corynebacterium striatum; details: other: AAC(3)-XIa, 22 °C, pH 6.5, 150 μM acetyl coenzyme A, n = 3
Method: as §4

[12] = molecular target: AAC(3)-XIa from Corynebacterium striatum (Corynebacterium striatum); experiment: crystal structure; AAC(3)-XIa partial-apo, with AcCoA, or with CoASH/AcNHCoA and an aminoglycoside; sitting-drop vapor diffusion at 22 °C, 0.1 M trisodium acetate pH 4.6, 10–30% MPD, 0–24% PEG 200; both protomers of the dimer in the asymmetric unit
[13] = 6 μg mL^−1 sisomicin, 3 μg mL^−1 gentamicin
[14] = AAC(3)-XIa, second set of sites
[15] = AAC(3)-Ia, first set of sites, 25 °C, with coenzyme A, n = 3
[16] = AAC(3)-Ia, second set of sites, 25 °C, with coenzyme A, n = 3
[17] = first set of sites, 25 °C, with coenzyme A, n = 3
[18] = second set of sites, 25 °C, with coenzyme A, n = 3

## CNC(C)C1CCC(N)C(OC2C(N)CC(N)C(OC3OCC(C)(O)C(NC)C3O)C2O)O1 (centres unmarked) [Gentamicin, gentamicin]
[1]; [13]
  Level of resistance relative to empty vector control (OD600 growth curve): greater level of resistance than the empty vector control
[1]; 12 μg mL^−1 antibiotic, 17 h
  Growth (OD600 growth curve): none of the strains of transformed E. coli were able to grow at all
[2]; 12 μg mL^−1 antibiotic, 17 h
  Growth (OD600 growth curve): none of the strains of transformed E. coli were able to grow at all
[2]; all concentrations tested
  Level of resistance relative to empty vector control (OD600 growth curve): unable to outperform the empty vector control in any experiments
[3]; [13]
  Level of resistance relative to empty vector control (OD600 growth curve): greater level of resistance than the empty vector control
[3]; 12 μg mL^−1 antibiotic, 17 h
  Growth (OD600 growth curve): none of the strains of transformed E. coli were able to grow at all
[4]
  MIC: 6 µg/mL (≈ 12.6 µM)
[5]
  MIC: 12 µg/mL (≈ 25.1 µM)
[6]
  MIC: 12 µg/mL (≈ 25.1 µM)
[7]
  MIC: 6 µg/mL (≈ 12.6 µM)
AAC(3)-XIa; AAC(3)-XIa, first set of sites
  TΔS: -1.38 ± 0.171 kcal/mol
  ΔG: -5.38 ± 2.88 kcal/mol
  ΔH: -6.77 ± 2.87 kcal/mol
AAC(3)-XIa; AAC(3)-XIa, first set of sites, two-set of sites model
  N (sites): 0.28 ± 0.06 sites
AAC(3)-XIa; [14]
  N2 (sites): 0.31 ± 0.05 sites
  TΔS 2: -2.916 ± 1.036 kcal/mol
  ΔG 2: -7.042 ± 1.18 kcal/mol
  ΔH 2: -9.958 ± 0.567 kcal/mol
AAC(3)-XIa; Kd2, AAC(3)-XIa, second set of sites
  Kd: 8.5 ± 5.5 µM
AAC(3)-XIa; Kd, AAC(3)-XIa, first set of sites, two-set of sites model
  Kd: 6.1 ± 1.8 µM
AAC(3)-Ia; [15]
  TΔS: -0.808 ± 0.343 kcal/mol
  ΔG: -6.52 ± 0.418 kcal/mol
  ΔH: -7.33 ± 0.238 kcal/mol
AAC(3)-Ia; AAC(3)-Ia, first set of sites, two-set of sites model, 25 °C, with coenzyme A, n = 3
  N (sites): 0.49 ± 0.02 sites
AAC(3)-Ia; [16]
  N2 (sites): 0.57 ± 0.02 sites
  TΔS 2: 4.24 ± 0.08 kcal/mol
  ΔG 2: -6.3 ± 0.112 kcal/mol
  ΔH 2: -2.06 ± 0.08 kcal/mol
AAC(3)-Ia; Kd2, AAC(3)-Ia, second set of sites, 25 °C, with coenzyme A, n = 3
  Kd: 23.8 ± 0.3 µM
AAC(3)-Ia; Kd, AAC(3)-Ia, first set of sites, two-set of sites model, 25 °C, with coenzyme A, n = 3
  Kd: 17.1 ± 3.2 µM
AAC(3)-Ia; Kd, AAC(3)-Ia, individual replicates, raw data behind Fig. 6
  Kd: 23.5 µM and 13.4 µM and 14.4 µM
AAC(3)-IIIa; [17]
  TΔS: 3.6 ± 0.053 kcal/mol
  ΔG: -6.94 ± 0.077 kcal/mol
  ΔH: -3.34 ± 0.056 kcal/mol
AAC(3)-IIIa; first set of sites, two-set of sites model, 25 °C, with coenzyme A, n = 3
  N (sites): 0.63 ± 0.01 sites
AAC(3)-IIIa; first set of sites, two-set of sites model, 25 °C, with coenzyme A, n = 3, read-out: Kd
  Kd: 8.3 ± 0.2 µM
AAC(3)-IIIa; individual replicates, raw data behind Fig. 6, read-out: Kd
  Kd: 8 µM and 8.13 µM and 8.7 µM
AAC(3)-IIIa; [18]
  N2 (sites): 0.63 ± 0.01 sites
  TΔS 2: 5.24 ± 0.043 kcal/mol
  ΔG 2: -6.69 ± 0.077 kcal/mol
  ΔH 2: -1.46 ± 0.063 kcal/mol
AAC(3)-IIIa; second set of sites, 25 °C, with coenzyme A, n = 3, read-out: Kd2
  Kd: 12.4 ± 0.5 µM

## AAC(3)-IIIa (Pseudomonas aeruginosa)
[8]
  Km: 13 ± 4 µM
  kcat: 36 ± 5 s⁻¹
  kcat/Km: 2.7e+06 ± 1.1e+06 M⁻¹ s⁻¹

## AAC(3)-Ia from Acinetobacter baumannii (enzyme)
[9]
  stoichiometry N: 2

## AAC(3)-XIa (Corynebacterium striatum)
[10]
  Km: 6.8 ± 0.7 µM
  kcat: 0.4 ± 0.01 s⁻¹
  kcat/Km: 60000 ± 10000 M⁻¹ s⁻¹
[11]
  Km: 0.8 ± 0.2 µM
  kcat: 0.2 ± 0.003 s⁻¹
  kcat/Km: 200000 ± 40000 M⁻¹ s⁻¹

## AAC(3)-XIa from Corynebacterium striatum (enzyme)
[12]
  stoichiometry N: 2
